Here are results for 18 molecules from patent US10717746B2, “Chemical compounds” (ASTRAZENECA AB, priority 2015, dated 2020).

Test [1] concerns MV411 cells. Put plainly: MV411 caspase activity assay (Caspase-Glo 3/7). The class given is cell-based. To be noted: Homo sapiens, MV4-11, 6 h, 6-hr treatment, caspase 3/7 induction. The method, boiled down: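 MV411 AML cells (3000/well) were plated overnight, then treated with compound for 6 h at 37 °C. Caspase-3/7 activity was read as luminescence after 30 min with Caspase-Glo 3/7 reagent at room temperature.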

In test [2] the test system is phosphorylation of RNA Polymerase II (RNAPII) at the Ser2 site in MCF7 cells. Put plainly: MCF7 pSer2 RNAPII MOA assay (immunofluorescence). The class given is cell-based. Conditions: Homo sapiens, MCF7, 6 h, 6-hr treatment, read-out: p-Ser 2 RNAPII (IC50). Summed up: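 Phospho-Ser2 RNAPII was measured by immunofluorescence (Alexa Fluor 488, DAPI counterstain) with plate cytometer read-out. Before staining, cells were fixed with paraformaldehyde and permeabilized with Triton. Exposure was 6 h at 37° C. to CDK9 inhibitors over 7 points (3 μM to 0.004 μM) in MCF7 cells seeded at 2500/well the previous day.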

For test [3], the target named is T1, CDK9/CycT1 (Homo sapiens (Human), UniProt P50750). The test can be described thus: CDK9 kinase assay, high ATP concentration (5 mM ATP). The class given is biochemical. Conditions: 1.5 nM CDK9, read-out: CDK9 High ATP conc. (IC50). The method, boiled down: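 Caliper mobility-shift read-out of phosphorylated vs unphosphorylated FITC-peptide (1.5 μM), giving percent turnover. Final 1.5 nM CDK9/CycT1 and 5 mM ATP in 50 mM HEPES pH 7.2, 1 mM DTT, 10 mM MgCl2; compound preincubated 15 min, reaction 90 min at 25° C, stopped with EDTA.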

Test [4] has as its target T1, CDK9/CycT1. Put plainly: CDK9 kinase assay, ATP concentration at Km (mobility shift, Caliper LC3000). The class given is biochemical. To be noted: 6 μM ATP, 3 nM CDK9/CycT1; read-out: CDK9 ATP conc. at Km (IC50). The method, boiled down:
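[…], compound sat 15 min with enzyme mix: 3 nM CDK9/CycT1, 1.5 µM FITC-GSRTPMY substrate, 6 µM ATP, pH 7.2 HEPES buffer.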

Structures are written as SMILES.

T1 sequence (P50750 whole entry): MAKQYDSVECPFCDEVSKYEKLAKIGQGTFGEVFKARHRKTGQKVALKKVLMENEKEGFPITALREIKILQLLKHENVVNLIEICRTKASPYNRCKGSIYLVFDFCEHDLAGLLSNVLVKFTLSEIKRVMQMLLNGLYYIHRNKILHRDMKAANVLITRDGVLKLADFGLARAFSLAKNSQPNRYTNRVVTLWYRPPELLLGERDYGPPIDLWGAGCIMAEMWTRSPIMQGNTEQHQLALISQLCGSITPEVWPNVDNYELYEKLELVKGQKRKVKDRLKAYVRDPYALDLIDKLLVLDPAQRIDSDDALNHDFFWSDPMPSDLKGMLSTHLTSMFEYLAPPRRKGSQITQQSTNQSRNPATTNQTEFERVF
T1 sequence (O60563 whole entry partner): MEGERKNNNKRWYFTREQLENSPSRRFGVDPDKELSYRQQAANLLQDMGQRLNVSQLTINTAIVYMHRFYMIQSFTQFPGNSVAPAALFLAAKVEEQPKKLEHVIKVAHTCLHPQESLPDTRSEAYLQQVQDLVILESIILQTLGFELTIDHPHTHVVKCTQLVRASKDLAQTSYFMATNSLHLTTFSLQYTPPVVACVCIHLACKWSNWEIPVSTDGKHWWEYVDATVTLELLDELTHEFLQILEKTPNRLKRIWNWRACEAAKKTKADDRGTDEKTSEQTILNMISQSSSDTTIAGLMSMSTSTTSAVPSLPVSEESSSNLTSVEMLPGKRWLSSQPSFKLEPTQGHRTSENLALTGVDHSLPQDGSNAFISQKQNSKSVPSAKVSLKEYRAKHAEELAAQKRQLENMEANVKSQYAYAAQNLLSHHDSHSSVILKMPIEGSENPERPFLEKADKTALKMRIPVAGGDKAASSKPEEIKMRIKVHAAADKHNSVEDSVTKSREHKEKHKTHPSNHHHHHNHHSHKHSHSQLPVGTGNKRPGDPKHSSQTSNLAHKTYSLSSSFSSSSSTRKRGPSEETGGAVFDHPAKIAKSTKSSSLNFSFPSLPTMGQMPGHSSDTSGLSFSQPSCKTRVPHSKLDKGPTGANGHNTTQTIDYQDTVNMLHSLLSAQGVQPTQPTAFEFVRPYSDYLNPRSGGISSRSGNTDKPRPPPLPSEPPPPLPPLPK

`CC1(C)Cc2c(-c3cc(NC(=O)[C@H]4CCC[C@@H](NC(=O)[C@H]5C[C@@H](O)C5)C4)ncc3Cl)cnn2C1` [Example 53, (1S,3R)—N-(5-chloro-4-(5,5-dimethyl-5,6-dihydro-4H-pyrrolo[1,2-b]pyrazol-3-yl)pyridin-2-yl)-3-(cis-3-hydroxycyclobutanecarboxamido)cyclohexanecarboxamide]: the IC50 in test [1] is 13 nM; in test [2] it was 12 nM; in test [3], less than 3 nM; in test [4], less than 3 nM.
Turning to `CC1(C)Cc2c(-c3cc(NC(=O)[C@H]4CCC[C@@H](N)C4)ncc3F)cnn2C1` [Example 54, (1S,3R)-3-amino-N-(4-(5,5-dimethyl-5,6-dihydro-4H-pyrrolo[1,2-b]pyrazol-3-yl)-5-fluoropyridin-2-yl)cyclohexane-1-carboxamide], the IC50 in test [1] came out at 431 nM; in test [2], 455 nM; in test [3], 777 nM; in test [4], 10 nM.
On the same counts, the results for `CC1(C)Cc2c(-c3cc(NC(=O)[C@H]4CCC[C@@H](NC(=O)C5(O)CC5)C4)ncc3F)cnn2C1` [Example 55, (1S,3R)—N-(4-(5,5-dimethyl-5,6-dihydro-4H-pyrrolo[1,2-b]pyrazol-3-yl)-5-fluoropyridin-2-yl)-3-(1-hydroxycyclopropanecarboxamido)cyclohexanecarboxamide] are 10 nM, 7 nM, less than 3 nM and less than 3 nM.
On to `CC1(C)Cc2ncc(-c3cc(NC(=O)[C@H]4CCC[C@@H](NC(=O)C5(O)CC5)C4)ncc3Cl)n2C1` [Example 56, (1S,3R)—N-(5-chloro-4-(6,6-dimethyl-6,7-dihydro-5H-pyrrolo[1,2-a]imidazol-3-yl)pyridin-2-yl)-3-(1-hydroxycyclopropanecarboxamido)cyclohexanecarboxamide], for which the IC50 in test [1] is 22 nM; in test [2], 29 nM; in test [3], 4 nM; in test [4], less than 3 nM.
On the same counts, the results for `CC1(C)Cc2ncc(-c3cc(NC(=O)[C@H]4CCC[C@@H](NC(=O)C5COC5)C4)ncc3Cl)n2C1` [Example 57, N-((1R,3S)-3-((5-chloro-4-(6,6-dimethyl-6,7-dihydro-5H-pyrrolo[1,2-a]imidazol-3-yl)pyridin-2-yl)carbamoyl)cyclohexyl)oxetane-3-carboxamide] are 53 nM, 28 nM, 4 nM and less than 3 nM.
For `CC1(C)Cc2ncc(-c3cc(NC(=O)[C@H]4C[C@@H](O)C4)ncc3Cl)n2C1` [Example 58, cis-N-(5-chloro-4-(6,6-dimethyl-6,7-dihydro-5H-pyrrolo[1,2-a]imidazol-3-yl)pyridin-2-yl)-3-hydroxycyclobutanecarboxamide] the same measures were 76 nM, 17 nM, 41 nM and less than 3 nM.
Take `CC(=O)N[C@@H]1CCC[C@H](C(=O)Nc2cc(-c3cnn4c3CCCC4)c(F)cn2)C1` [Example 63, (1S,3R)-3-acetamido-N-(5-fluoro-4-(4,5,6,7-tetrahydropyrazolo[1,5-a]pyridin-3-yl)pyridin-2-yl)cyclohexanecarboxamide]: the IC50 in test [1] is 159 nM; in test [2], 104 nM; in test [3], 51 nM; in test [4], less than 3 nM.
For `CC(=O)N[C@@H]1CCC[C@H](C(=O)Nc2cc(-c3cnn4c3CCCCC4)c(Cl)cn2)C1` [Example 66, (1S,3R)-3-acetamido-N-(5-chloro-4-(5,6,7,8-tetrahydro-4H-pyrazolo[1,5-a]azepin-3-yl)pyridin-2-yl)cyclohexanecarboxamide], the IC50 in test [1] is 183 nM; in test [2], 92 nM; in test [3], 23 nM; in test [4], less than 3 nM.
On to `O=C(N[C@@H]1CCC[C@H](C(=O)Nc2cc(-c3cnn4c3CCCC4)c(Cl)cn2)C1)C1COC1` [Example 67, N-((1R,3S)-3-((5-chloro-4-(4,5,6,7-tetrahydropyrazolo[1,5-a]pyridin-3-yl)pyridin-2-yl)carbamoyl)cyclohexyl)oxetane-3-carboxamide], for which the IC50 in test [1] is 99 nM; in test [2] it was 62 nM; in test [3] it was 19 nM; in test [4], less than 3 nM.
For `CC(=O)N[C@@H]1CCC[C@H](C(=O)Nc2cc(-c3cnn4c3CCCCC4)c(F)cn2)C1` [Example 74, (1S,3R)-3-acetamido-N-(5-fluoro-4-(5,6,7,8-tetrahydro-4H-pyrazolo[1,5-a]azepin-3-yl)pyridin-2-yl)cyclohexanecarboxamide] the same measures were 281 nM, 192 nM, 39 nM and less than 3 nM.
For `Cc1cnc(NC(=O)[C@H]2CCC[C@@H](NC(=O)CO)C2)cc1-c1cnn2c1CC(C)(C)C2` [Example 75, (1S,3R)—N-(4-(5,5-dimethyl-5,6-dihydro-4H-pyrrolo[1,2-b]pyrazol-3-yl)-5-methylpyridin-2-yl)-3-(2-hydroxyacetamido)cyclohexanecarboxamide] the same measures were 111 nM, 67 nM, 29 nM and less than 3 nM.
On to `Cc1cnc(NC(=O)[C@H]2CCC[C@@H](NC(=O)C3COC3)C2)cc1-c1cnn2c1CC(C)(C)C2` [Example 76, N-((1R,3S)-3-((4-(5,5-dimethyl-5,6-dihydro-4H-pyrrolo[1,2-b]pyrazol-3-yl)-5-methylpyridin-2-yl)carbamoyl)cyclohexyl)oxetane-3-carboxamide], for which the IC50 is 36 nM in test [1], 38 nM in test [2], 9 nM in test [3] and less than 3 nM in test [4].
On the same counts, the results for `CC(=O)N[C@@H]1CCC[C@H](C(=O)Nc2cc(-c3cnn4c3CCCC4)c(C)cn2)C1` [Example 77, (1S,3R)-3-acetamido-N-(5-methyl-4-(4,5,6,7-tetrahydropyrazolo[1,5-a]pyridin-3-yl)pyridin-2-yl)cyclohexanecarboxamide] are 543 nM, 338 nM, 213 nM and 4 nM.
In the case of `CC(=O)N[C@@H]1CCC[C@H](C(=O)Nc2cc(-c3cnn4c3CCCC4O)c(Cl)cn2)C1` (stereo partly drawn) [Example 78, (1S,3R)-3-acetamido-N-(5-chloro-4-(7-hydroxy-4,5,6,7-tetrahydropyrazolo[1,5-a]pyridin-3-yl)pyridin-2-yl)cyclohexanecarboxamide], the IC50 in test [1] is 1230 nM; in test [2] it was 720 nM; in test [3] it was 60 nM; in test [4] it was less than 3 nM.
On to `CC(=O)N[C@@H]1CCC[C@H](C(=O)Nc2cc(-c3cn[nH]c3CCCCO)c(Cl)cn2)C1` [Example 78a, (1S,3R)-3-acetamido-N-(5-chloro-4-(5-(4-hydroxybutyl)-1H-pyrazol-4-yl)pyridin-2-yl)cyclohexanecarboxamide], for which the IC50 in test [1] is 7130 nM; in test [2], greater than 2630 nM; in test [3], 85 nM; in test [4], less than 3 nM.
On to `CC(=O)N[C@H]1CCC[C@@H](C(=O)Nc2cc(-c3cnn4c3CC(C)(C)C4)c(F)cn2)C1` [Example 81, (1R,3S)-3-acetamido-N-(4-(5,5-dimethyl-5,6-dihydro-4H-pyrrolo[1,2-b]pyrazol-3-yl)-5-fluoropyridin-2-yl)cyclohexanecarboxamide], for which the IC50 in test [1] turned out to be 896 nM; in test [2] it was 665 nM; in test [3] it was 554 nM; in test [4] it was 8 nM.
`CC(=O)N[C@@H]1CCC[C@H](C(=O)Nc2cc(-c3cnn4c3CC(C)(C)C4O)c(Cl)cn2)C1` (stereo partly drawn) [Example 82, (1S,3R)-3-acetamido-N-(5-chloro-4-(6-hydroxy-5,5-dimethyl-5,6-dihydro-4H-pyrrolo[1,2-b]pyrazol-3-yl)pyridin-2-yl)cyclohexane-1-carboxamide]: the IC50 was 124 nM in test [1], 174 nM in test [2], 22 nM in test [3] and less than 4 nM in test [4].
On the same counts, the results for `CC(=O)N[C@@H]1CCC[C@H](C(=O)Nc2cc(-c3cn[nH]c3CC(C)(C)CO)c(Cl)cn2)C1` [Example 82a, (1S,3R)-3-acetamido-N-(5-chloro-4-(5-(3-hydroxy-2,2-dimethylpropyl)-1H-pyrazol-4-yl)pyridin-2-yl)cyclohexane-1-carboxamide] are 2260 nM, greater than 2340 nM, 139 nM and 4 nM.
